Measurements reported in PMC9962372, “Antiparasitic Meroterpenoids Isolated from Memnoniella dichroa CF-080171” (Pharmaceutics, 2023).
Like-named read-outs stand apart in the source and are kept apart here.

How the values were obtained:
T. cruzi Tulahuen C4 = assay: Transgenic T. cruzi β-D-galactosidase assay in infected L6 cells; format: cell-based, Trypanosoma cruzi; settings: for EC50: 96 h, infected L6 host cells, β-galactosidase readout, read-out: Antiparasitic EC50 T. cruzi Tulahuen C4; for activity against T. cruzi Tulahuen (in words): whole parasites, extracts in HTS / bioassay-guided testing
Experimental: (§1) The EC50 of all the biological assays were computed with the Genedata Screener application (Genedata AG, Basel, Switzerland) using the equation below to calculate percentage inhibition: Percentage inhibition=[1−(Abswell−Absneg/Abspos−Absneg)]×100
(§2) Here, Abswell = absorbance/well, Abspos = average absorbance in positive control wells, and Absneg = average absorbance in negative wells.
The EC50 determinations of the isolated compounds were performed with 16-point dose-response curves. Each concentration was evaluated in triplicate (concentration range of 50–0.00152 µM) in the transgenic T. cruzi β-D-galactosidase assay as previously described by Annang et al., 2014 [27]. The T. cruzi Tulahuen strain used is a genetically modified strain that expresses the Escherichia coli β-galactosidase gene, lacZ [28]. It was kindly supplied by Marcel Kaiser (Swiss Tropical and Public Health Institute). The parasites were generally maintained in a growth medium (RPMI 1640 supplemented with 10% inactivated fetal bovine serum (iFBS), 100 µg/mL streptomycin, 100 U/mL penicillin, 2 mM L-glutamine) at 37 °C, 5% CO2. For the assay, transgenic trypomastigote stage parasites were used to infect L6 rat skeletal muscle cells (host). Fifty-five microliters (55 µL) of the infected L6 cell culture were dispensed into 384-well assay plates (2 × 10^3 infected L6 cells/well) containing 5 µL of the test compounds (parasite medium/10 µgmL^−1 benznidazole were used as positive/negative growth controls) and incubated for 96 h at 37 °C, after which 15 µL of assay solution (100 µM CRPG and 0.1% NP40 made up in PBS) were added to each well, and plates were further incubated in the dark for 4 h at 37 °C. Absorbance in the wells was read at 585 nm in an Envision plate reader (Perkin Elmer, Waltham, MA, USA).

[1] = MTT-based cytotoxicity assay in HepG2 cells; format: cell-based; settings: human, Hep G2 liver carcinoma cells (ATCC HB-8065); 72 h, MTT; read-out: Cytotoxic EC50 Hep G2
Experimental: as §1, §2
(§3) The EC50 determinations of the isolated compounds were performed with 12-point dose-response curves. Each concentration was evaluated in triplicate (concentration range of 50–0.0244 µM) in an MTT-based assay performed in liver carcinoma Hep G2 HB-8065 ATCC (American Type Culture Collection) cells as previously described by Annang et al., 2020 [29]. Cells (96-well plates were used with seeding at 1 × 10^4 cells/well) were cultured in 200 µL MEM medium per well at 37 °C, 5% CO2 for 24 h, after which the spent media were replaced with 200 µL MEM medium and 1 μL of test compounds. DMSO (0.5%), 8 mM methyl methanesulfonate and doxorubicin were used as positive, negative, and standard drug controls, respectively. After 72 h incubation with the test compounds at 37 °C, 100 µL of 0.5 mg/mL MTT solution diluted in MEM without phenol red was added to each well, and plates were briefly shaken and further incubated for 3 h at 37 °C. The supernatant in each well was carefully discarded and replaced with 100 µL of DMSO, and plates were gently shaken (to solubilize the formazan formed) before reading the absorbance at 570 nm in a Victor2 plate reader (Perkin Elmer, USA).

Hep G2 cells = assay: MTT-based cytotoxicity assay in HepG2 cells; format: cell-based; settings: Hep G2 EC50 versus P. falciparum 3D7 EC50
Experimental: as §1, §2, §3

P. falciparum 3D7 [2] = assay: P. falciparum 3D7 lactate dehydrogenase whole parasite assay; format: cell-based, Plasmodium falciparum; settings: for EC50: Plasmodium falciparum
Experimental: The EC50 determinations of the isolated compounds were performed with 16-point dose-response curves. Each concentration was evaluated in triplicate (concentration range of 100–0.00305 µM) using the P. falciparum 3D7 lactate dehydrogenase whole parasite assay as previously described by Pérez-Moreno et al., 2016 [25]. The Plasmodium falciparum 3D7 strain is a clone of the NF54 strain, which was previously isolated from a patient. The parasites were maintained in O^+ human erythrocytes at 5% haematocrit and 0.1–8% parasitaemia, with incubation at 37 °C, 1% O2, 5% CO2, and 94% N2 in complete medium (10.4 g/L RPMI 1640, 150 μM hypoxanthine, 12.5 μg/mL gentamicin, 0.2% NaHCO3, 0.5% albuMAX II, 2% human O^+ serum). The […] (LDH) assay was performed in 384-well plates using late-ring/early trophozoite synchronized parasites at 2% hematocrit and 0.25% parasitaemia. Twenty-five microliters of (25 µL) parasite culture were incubated with 5 µL of the test compounds (parasite medium/100 nM chloroquine used as positive/negative growth controls) for 72 h, after which the plates were frozen for 4 h, thawed for 1 h at room temperature before adding 70 µL of freshly prepared LDH solution (1 U/mL diaphorase, 143 µM APAD, 143 mM sodium L-lactate, 178.75 µM NBT, 0.7% Tween 20, 100 mM Tris-HCL) at pH 8.0. Plates were briefly shaken and incubated for 10 min (in the dark), and absorbance was read at 650 nm in an Envision plate reader (Perkin Elmer, Waltham, MA, USA).
as §1, §2

[3] = Cytotoxicity assay (resazurin) in L6 rat skeletal muscle cells; format: cell-based; settings: L6 rat skeletal muscle cells (ATCC CRL-1458), read-out: Cytotoxic EC50 L6
Experimental: Seeding of the L6 cells was done in 96-well plates at 4 × 10^3 cells per well in 100 µL volume; they were then cultured for 24 h. Ten millimolar (10 mM) DMSO stocks of the compounds to be tested were used to prepare 16-point dose-response curves. Each concentration was evaluated in triplicate (using the cell culture medium as diluent) at a final volume of 300 µL (compound concentration range of 50–0.00152 µM and DMSO at 0.5 %). The spent growth medium from the 24 h-seeded cells was carefully replaced with 100 µL of the prepared working concentrations of the compounds to be tested and incubated for 72 h. The spent medium was again carefully replaced (without disturbing the layer of cells at the bottom of each well) with 100 µL fresh medium, after which 20 µL of 0.02% resazurin (previously diluted in 1X PBS) was added to the wells and incubated for 2 h in the dark at 37 °C. The plates were then shaken for 5 s, and fluorescence was read at 570–590 nm in a TECAN Infinite F200 fluorimeter.

P. falciparum 3D7 [4] = assay: P. falciparum 3D7 lactate dehydrogenase whole parasite assay; format: cell-based, Plasmodium falciparum; settings: whole parasites; extracts in HTS / bioassay-guided testing
[5] = tested on: three different cell lines; parameters: method as in PMID 10656571; settings: at 100 µM; cited from earlier work
[6] = C3 ketone (1) versus C3 hydroxyl (2)
[7] = Trypanosoma cruzi, TULAHUEN, L6, 96 h
[8] = 3D7 / TULAHUEN, read-out: antiparasitic EC50 against both parasites (range)
[9] = 3D7, 72 h, LDH readout, 16-point curves in triplicate, read-out: Antiparasitic EC50 P. falciparum 3D7

CC1(C)C(=O)CC[C@]2(C)[C@H]3Cc4c(O)cc5c(c4O[C@]3(C)CC[C@@H]12)CN(CCO)C5=O [Compound 1, Memnobotrin C]
EC50 (T. cruzi Tulahuen C4): 266 ± 24 nM | fold improvement of biological activity against T. cruzi Tulahuen C4 compared to compound 2 (T. cruzi Tulahuen C4; [6]): 5 fold | EC50 (T. cruzi Tulahuen C4; [7]): 226 nM | EC50 at 72 h [1]: 1200 nM | Selectivity index (SI), Hep G2 in comparison to activity in P. falciparum 3D7 (Hep G2 cells): 30 | fold improvement of biological activity against P. falciparum 3D7 compared to compound 2 (P. falciparum 3D7 [2]; [6]): 5 fold | EC50 (P. falciparum 3D7 [2]; [8]): 40 to 1370 nM | EC50 (P. falciparum 3D7 [2]; [9]): 40 ± 2 nM | EC50 at 72 h [3]: < 98 nM

CC1(C)[C@@H](O)CC[C@]2(C)[C@H]3Cc4c(O)cc5c(c4O[C@]3(C)CC[C@@H]12)CN(CCO)C5=O [Compound 2, memnobotrin D]
EC50 (T. cruzi Tulahuen C4; [7]): 1370 ± 18 nM | EC50 at 72 h [1]: 4530 nM | Selectivity index (SI), Hep G2 in comparison to activity in P. falciparum 3D7 (Hep G2 cells): 22.5 | EC50 (P. falciparum 3D7 [2]; [8]): 40 to 1370 nM | EC50 (P. falciparum 3D7 [2]; [9]): 201 ± 16 nM | EC50 at 72 h [3]: 1390 ± 40 nM

CC(=O)O[C@H]1CC[C@]2(C)[C@H]3Cc4c(O)cc5c(c4O[C@]3(C)CC[C@H]2C1(C)C)CN(CCO)C5=O [Compound 3, 8-epi-memnobotrin B]
fold lower potency against T. cruzi Tulahuen C4 in comparison to compound 1 (T. cruzi Tulahuen C4): 157 fold | EC50 (T. cruzi Tulahuen C4; [7]): 41770 ± 10 nM | fold lower potency against P. falciparum 3D7 in comparison to compound 1 (P. falciparum 3D7 [2]): 179 fold | EC50 (P. falciparum 3D7 [2]; [9]): 7170 ± 50 nM

CC(=CCc1c(O)cc2c(c1O)C(=O)OC2)CCC=C(C)CCCC(C)(C)OC1OC(CO)C(O)C(O)C1O (stereo not shown) [Compound 4]
EC50 (T. cruzi Tulahuen C4; [7]): 934 ± 88 nM | EC50 at 72 h [1]: 4840 nM | Selectivity index (SI), Hep G2 in comparison to activity in P. falciparum 3D7 (Hep G2 cells): 19.9 | EC50 (P. falciparum 3D7 [2]; [9]): 243 ± 23 nM

C/C(=C\CCC1(C)C=Cc2c(cc3c(c2O)C(=O)OC3)O1)CCC(O)C(C)(C)O (stereo not shown) [Compound 5]
EC50 (T. cruzi Tulahuen C4; [7]): > 50000 nM | activity against T. cruzi Tulahuen (in words) (T. cruzi Tulahuen C4): low or no biological activity | EC50 (P. falciparum 3D7 [2]; [9]): 8000 ± 200 nM | activity against P. falciparum 3D7 (in words) (P. falciparum 3D7 [4]): low or no biological activity | EC50 at 72 h [3]: > 50000 nM

Cc1cc(O)c2c(c1)O[C@]1(C)CC[C@H]3C(C)(C)[C@@H](O)CC[C@]3(C)[C@H]1C2 [Compound 6]
EC50 (T. cruzi Tulahuen C4; [7]): 7000 ± 200 nM | activity against T. cruzi Tulahuen (in words) (T. cruzi Tulahuen C4): low or no biological activity | EC50 (P. falciparum 3D7 [2]; [9]): 4000 ± 100 nM | activity against P. falciparum 3D7 (in words) (P. falciparum 3D7 [4]): low or no biological activity | EC50 at 72 h [3]: 2000 ± 100 nM

C=C1CC[C@H]2C(C)(C)C(=O)CC[C@]2(C)[C@H]1Cc1c(O)cc2c(c1O)C(=O)OC2 [Compound 7]
EC50 (T. cruzi Tulahuen C4; [7]): > 50000 nM | activity against T. cruzi Tulahuen (in words) (T. cruzi Tulahuen C4): low or no biological activity | EC50 (P. falciparum 3D7 [2]; [9]): > 100000 nM | activity against P. falciparum 3D7 (in words) (P. falciparum 3D7 [4]): low or no biological activity | EC50 at 72 h [3]: > 50000 nM

CC1(C)[C@@H](O)CC[C@]2(C)[C@H]3Cc4c(O)cc5c(c4O[C@]3(C)CC[C@@H]12)C(=O)OC5 [Compound 8]
EC50 (T. cruzi Tulahuen C4; [7]): > 50000 nM | activity against T. cruzi Tulahuen (in words) (T. cruzi Tulahuen C4): low or no biological activity | EC50 (P. falciparum 3D7 [2]; [9]): 17800 ± 100 nM | activity against P. falciparum 3D7 (in words) (P. falciparum 3D7 [4]): low or no biological activity

CC(=O)O[C@H]1CC[C@]2(C)[C@H]3Cc4c(O)cc5c(c4O[C@@]3(C)CC[C@H]2C1(C)C)CN(CCO)C5=O [Memnobotrin B]
cytotoxic activity, inhibition percentages [5]: 80–90%
